From the NIST ThermoML archive (doi:10.1021/je060271a)
Numbers after ± are expanded uncertainties.

Conditions: 323.14 K, Liquid, Vibrating tube method

CCCCCCC(=O)OCC(COC(=O)CCCCCC)(COC(=O)CCCCCC)COC(=O)CCCCCC [pentaerythritol tetraheptanoate]
Conditions	mass density [kg/m3]
8083.9 kPa	961.1 ± 1.2
8112.2 kPa	961 ± 1.2
8146.4 kPa	961.1 ± 1.2
8174.7 kPa	961.1 ± 1.2
8204 kPa	961.1 ± 1.2
8239.5 kPa	961.1 ± 1.2
8270.3 kPa	961.2 ± 1.2
8300.6 kPa	961.1 ± 1.2
8335.1 kPa	961.2 ± 1.2
8358.1 kPa	961.3 ± 1.2
8377.9 kPa	961.3 ± 1.2
8401.4 kPa	961.2 ± 1.2
8421.2 kPa	961.3 ± 1.2
8441.4 kPa	961.4 ± 1.2
8465.3 kPa	961.4 ± 1.2
8485.9 kPa	961.3 ± 1.2
8506.7 kPa	961.3 ± 1.2
8527.9 kPa	961.3 ± 1.2
8548.6 kPa	961.4 ± 1.2
8573.6 kPa	961.4 ± 1.2
8594.5 kPa	961.5 ± 1.2
8619.3 kPa	961.5 ± 1.2
8640.2 kPa	961.3 ± 1.2
8661.6 kPa	961.4 ± 1.2
8682.6 kPa	961.4 ± 1.2
9244.8 kPa	961.9 ± 1.2
9604.8 kPa	962.1 ± 1.2
9745.2 kPa	962.3 ± 1.2
9761.3 kPa	962.2 ± 1.2
9775 kPa	962.3 ± 1.2
9934.6 kPa	962.3 ± 1.2
9965.6 kPa	962.4 ± 1.2
9979.5 kPa	962.3 ± 1.2
9996.2 kPa	962.3 ± 1.2
10025 kPa	962.4 ± 1.2
10042 kPa	962.3 ± 1.2
10056 kPa	962.4 ± 1.2
10453 kPa	962.6 ± 1.2
10957 kPa	962.9 ± 1.2
10974 kPa	962.9 ± 1.2
10995 kPa	963 ± 1.2
11012 kPa	962.9 ± 1.2
11032 kPa	963 ± 1.2
11050 kPa	963.1 ± 1.2
11067 kPa	963 ± 1.2
11088 kPa	963 ± 1.2
11123 kPa	963.1 ± 1.2
11141 kPa	963.1 ± 1.2
11162 kPa	963.1 ± 1.2
11180 kPa	963.2 ± 1.2
11202 kPa	963.2 ± 1.2
11220 kPa	963.2 ± 1.2
11238 kPa	963.3 ± 1.2
11259 kPa	963.3 ± 1.2
11278 kPa	963.2 ± 1.2
11296 kPa	963.2 ± 1.2
11317 kPa	963.2 ± 1.2
11335 kPa	963.2 ± 1.2
11354 kPa	963.2 ± 1.2
11679 kPa	963.5 ± 1.2
11702 kPa	963.5 ± 1.2
11722 kPa	963.5 ± 1.2
11742 kPa	963.4 ± 1.2
11765 kPa	963.6 ± 1.2
11786 kPa	963.6 ± 1.2
11806 kPa	963.5 ± 1.2
11826 kPa	963.6 ± 1.2
11850 kPa	963.7 ± 1.2
11871 kPa	963.6 ± 1.2
11892 kPa	963.5 ± 1.2
11914 kPa	963.6 ± 1.2
11934 kPa	963.6 ± 1.2
11958 kPa	963.7 ± 1.2
12004 kPa	963.6 ± 1.2
12461 kPa	964 ± 1.2
12560 kPa	964 ± 1.2
12657 kPa	963.9 ± 1.2
12708 kPa	964 ± 1.2
12732 kPa	964 ± 1.2
12784 kPa	964.2 ± 1.2
12808 kPa	964.1 ± 1.2
12962 kPa	964.3 ± 1.2
12986 kPa	964.3 ± 1.2
13011 kPa	964.3 ± 1.2
13041 kPa	964.2 ± 1.2
13066 kPa	964.4 ± 1.2
13090 kPa	964.3 ± 1.2
13120 kPa	964.4 ± 1.2
13146 kPa	964.4 ± 1.2
13171 kPa	964.4 ± 1.2
13202 kPa	964.3 ± 1.2
13252 kPa	964.5 ± 1.2
13283 kPa	964.5 ± 1.2
13308 kPa	964.4 ± 1.2
13334 kPa	964.6 ± 1.2
13365 kPa	964.6 ± 1.2
13391 kPa	964.5 ± 1.2
13418 kPa	964.6 ± 1.2
13449 kPa	964.6 ± 1.2
13475 kPa	964.7 ± 1.2
13502 kPa	964.6 ± 1.2
13533 kPa	964.6 ± 1.2
13560 kPa	964.7 ± 1.2
13587 kPa	964.5 ± 1.2
13619 kPa	964.7 ± 1.2
13645 kPa	964.7 ± 1.2
13678 kPa	964.8 ± 1.2
13705 kPa	964.6 ± 1.2
13732 kPa	964.8 ± 1.2
13760 kPa	964.7 ± 1.2
13793 kPa	964.8 ± 1.2
13822 kPa	964.8 ± 1.2
13850 kPa	964.7 ± 1.2
13884 kPa	964.8 ± 1.2
13912 kPa	964.9 ± 1.2
13940 kPa	965 ± 1.2
13969 kPa	964.9 ± 1.2
14002 kPa	964.9 ± 1.2
14031 kPa	964.9 ± 1.2
14065 kPa	964.9 ± 1.2
14094 kPa	964.9 ± 1.2
14124 kPa	965 ± 1.2
14159 kPa	964.9 ± 1.2
14217 kPa	964.9 ± 1.2
14254 kPa	965 ± 1.2
14374 kPa	965 ± 1.2
14411 kPa	965.1 ± 1.2
14441 kPa	965.3 ± 1.2
14478 kPa	965.2 ± 1.2
14509 kPa	965.3 ± 1.2
14540 kPa	965.3 ± 1.2
14571 kPa	965.2 ± 1.2
14777 kPa	965.3 ± 1.2
14810 kPa	965.4 ± 1.2
14849 kPa	965.5 ± 1.2
14883 kPa	965.4 ± 1.2
15305 kPa	965.7 ± 1.2
15364 kPa	965.8 ± 1.2
15393 kPa	965.8 ± 1.2
15404 kPa	965.8 ± 1.2
15412 kPa	965.8 ± 1.2
15421 kPa	965.8 ± 1.2
15430 kPa	965.8 ± 1.2
15440 kPa	965.9 ± 1.2
15449 kPa	965.8 ± 1.2
15460 kPa	965.9 ± 1.2
15468 kPa	966 ± 1.2
15477 kPa	965.9 ± 1.2
15488 kPa	965.8 ± 1.2
15497 kPa	965.8 ± 1.2
15506 kPa	965.9 ± 1.2
15514 kPa	965.8 ± 1.2
15525 kPa	965.8 ± 1.2
15534 kPa	966 ± 1.2
15543 kPa	965.9 ± 1.2
15554 kPa	965.9 ± 1.2
15563 kPa	965.9 ± 1.2
15573 kPa	965.9 ± 1.2
15582 kPa	966 ± 1.2
15591 kPa	965.9 ± 1.2
15600 kPa	966 ± 1.2
15611 kPa	966 ± 1.2
15620 kPa	965.9 ± 1.2
15658 kPa	966.1 ± 1.2
15667 kPa	966 ± 1.2
15678 kPa	966 ± 1.2
15687 kPa	966 ± 1.2
15698 kPa	966.1 ± 1.2
15716 kPa	966.2 ± 1.2
15756 kPa	966.1 ± 1.2
15853 kPa	966.1 ± 1.2
15873 kPa	966.2 ± 1.2
15882 kPa	966.1 ± 1.2
15893 kPa	966.1 ± 1.2
15912 kPa	966.1 ± 1.2
15923 kPa	966 ± 1.2
15933 kPa	966.2 ± 1.2
15942 kPa	966.2 ± 1.2
16746 kPa	966.7 ± 1.2
16758 kPa	966.5 ± 1.2
16768 kPa	966.7 ± 1.2
16779 kPa	966.7 ± 1.2
16792 kPa	966.6 ± 1.2
16801 kPa	966.7 ± 1.2
16813 kPa	966.6 ± 1.2
16924 kPa	966.8 ± 1.2
16935 kPa	966.8 ± 1.2
16947 kPa	966.8 ± 1.2
16960 kPa	966.9 ± 1.2
16970 kPa	966.9 ± 1.2
16981 kPa	966.8 ± 1.2
16993 kPa	966.8 ± 1.2
17004 kPa	966.9 ± 1.2
17223 kPa	966.9 ± 1.2
17236 kPa	967 ± 1.2
17329 kPa	967.1 ± 1.2
17342 kPa	967.1 ± 1.2
17353 kPa	967.1 ± 1.2
17364 kPa	967.1 ± 1.2
17378 kPa	967.1 ± 1.2
17401 kPa	967 ± 1.2
17522 kPa	967 ± 1.2
17659 kPa	967.3 ± 1.2
17673 kPa	967.2 ± 1.2
17685 kPa	967.2 ± 1.2
17697 kPa	967.3 ± 1.2
17708 kPa	967.1 ± 1.2
17722 kPa	967.2 ± 1.2
17734 kPa	967.3 ± 1.2
17784 kPa	967.3 ± 1.2
17798 kPa	967.3 ± 1.2
17885 kPa	967.4 ± 1.2
17912 kPa	967.5 ± 1.2
17924 kPa	967.3 ± 1.2
17938 kPa	967.4 ± 1.2
17950 kPa	967.5 ± 1.2
18001 kPa	967.4 ± 1.2
18171 kPa	967.5 ± 1.2
18199 kPa	967.5 ± 1.2
18211 kPa	967.6 ± 1.2
18226 kPa	967.6 ± 1.2
18239 kPa	967.6 ± 1.2
18252 kPa	967.6 ± 1.2
